The numbers were not newly measured in patent publication US20100190739A1, “Rapidly Dissolving Vitamin Formulation and Methods of Using the Same” (FLEMING AND COMPANY, PHARMACEUTICALS, priority 2008, published 2010), which cites them from elsewhere.

The conditions of series [1]: Institute of Medicine.
Assay in series [2]: not given
This is another data set of the same source.

With `[Cr]` [Chromium, chromium], the “Doses that can cause adverse reactions” value (some evidence) was “above 250 μg”.
As for `Cc1ncc(C[n+]2csc(CCO)c2C)c(N)n1` [Example B1, thiamine], the “Dose with no evidence of oral toxicity” value (doses as high as, taken for extended periods of time) is given as 200 mg.
Consider `Cc1ncc(CO)c(CO)c1O` [Example B6, pyridoxine], for which the Tolerable upper limit in series [1] is 100 mg/day. In addition, under “long term study”, the “Dose showing potential damage to sensory nerves” value is on record as 200 mg/day.
In the case of `[Mn+2]` [Manganese, manganese], in series [1], the Tolerable upper limit was 11 mg/day. Besides, the “Fraction of dietary intake absorbed” value in series [2] is recorded as 3-5%.
As to `[Mo]` [Molybdenum, molybdenum], the “Intake causing significant losses of copper” value (in vivo) is “above 500 μg/day”.
In the case of `[Se]` [Selenium, selenium], in series [1], the Tolerable upper limit was 0.4 mg/day.
`[Zn]` [Zinc, zinc]: the Tolerable upper limit in series [1] is listed as 40 mg/day. In addition, for the setting “in vivo”, the “Doses at which acute toxicity can occur (as low as)” value was at least 30 mg/day and the “Doses at which acute toxicity is more common” value was “exceeding 100 mg/day”.
As to `O=C(O)c1cccnc1` [niacin], in series [1], the Tolerable upper limit was 35 mg/day.
Turning to cobalamin [Example B12], the “Level at which toxicity has not been demonstrated” value (in vivo) is on record as 10,000 × the recommended daily allowance (RDA).
